Reference: PubChem BioAssay (NCI)
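Values below derive from 48-hour exposures of cells grown in 96-well plates, with endpoints linearly interpolated between the two concentrations bracketing the appropriate inhibition level. TGI: concentration producing complete growth inhibition.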

Experiments:
Test in all cases: NCI tumour cell line growth inhibition, 48 h
MDA-MB-231 breast = system: MDA-MB-231 breast
HS 578T breast = system: HS 578T breast
HOP-18 NSCLC = system: HOP-18 NSCLC
SNB-78 CNS = system: SNB-78 CNS
DMS 114 small cell lung = system: DMS 114 small cell lung
P388/ADR leukemia = system: P388/ADR leukemia
SN12K1 renal = system: SN12K1 renal
M19-MEL melanoma = system: M19-MEL melanoma
XF 498 CNS = system: XF 498 CNS

`CCOC(=O)c1csc(NC(=O)CCN2CCCC2)n1` was tested, and the TGI (MDA-MB-231 breast) was greater than 100 µM.

`O=C(C(=C(I)I)c1ccccc1)c1ccccc1` showed a TGI (HS 578T breast) of 43.2 µM.

For `COc1ccc(C2c3cc4c(cc3OC(Nc3ccccc3)C2C)OCO4)cc1` (stereo not given), the TGI (MDA-MB-231 breast) was greater than 100 µM and the TGI (HS 578T breast) was greater than 100 µM.

With `CCCn1cc2c3c(cccc31)C1C=C(C)CN(C)C1C2` (stereo not given) the TGI (HOP-18 NSCLC) was 50.5 µM, the TGI (SNB-78 CNS) was 73.4 µM and the TGI (DMS 114 small cell lung) was 43.1 µM. The TGI (P388/ADR leukemia) was 43.2 µM and the TGI (SN12K1 renal) was 44.1 µM.

`COc1cc(N=Nc2ccc(OC)c(S(=O)(=O)O)c2)c(C)cc1N=Nc1ccc(/C=C/c2ccc(N=[N+]([O-])c3ccc(/C=C/c4ccc(N=Nc5cc(C)c(N=Nc6ccc(OC)c(S(=O)(=O)O)c6)cc5OC)cc4S(=O)(=O)O)c(S(=O)(=O)O)c3)cc2S(=O)(=O)O)c(S(=O)(=O)O)c1` gave a TGI (HOP-18 NSCLC) greater than 100 µM, a TGI (SNB-78 CNS) greater than 100 µM and a TGI (DMS 114 small cell lung) greater than 100 µM. The TGI (M19-MEL melanoma) was greater than 100 µM, the TGI (SN12K1 renal) was greater than 100 µM and the TGI (XF 498 CNS) was greater than 100 µM.
